The values below come from ChEMBL document CHEMBL5108047 (J Med Chem, 2022).

For assay [1], the target named is T1, DNA polymerase subunit gamma-1 (Homo sapiens, UniProt P54098).
T1 sequence (P54098 whole entry): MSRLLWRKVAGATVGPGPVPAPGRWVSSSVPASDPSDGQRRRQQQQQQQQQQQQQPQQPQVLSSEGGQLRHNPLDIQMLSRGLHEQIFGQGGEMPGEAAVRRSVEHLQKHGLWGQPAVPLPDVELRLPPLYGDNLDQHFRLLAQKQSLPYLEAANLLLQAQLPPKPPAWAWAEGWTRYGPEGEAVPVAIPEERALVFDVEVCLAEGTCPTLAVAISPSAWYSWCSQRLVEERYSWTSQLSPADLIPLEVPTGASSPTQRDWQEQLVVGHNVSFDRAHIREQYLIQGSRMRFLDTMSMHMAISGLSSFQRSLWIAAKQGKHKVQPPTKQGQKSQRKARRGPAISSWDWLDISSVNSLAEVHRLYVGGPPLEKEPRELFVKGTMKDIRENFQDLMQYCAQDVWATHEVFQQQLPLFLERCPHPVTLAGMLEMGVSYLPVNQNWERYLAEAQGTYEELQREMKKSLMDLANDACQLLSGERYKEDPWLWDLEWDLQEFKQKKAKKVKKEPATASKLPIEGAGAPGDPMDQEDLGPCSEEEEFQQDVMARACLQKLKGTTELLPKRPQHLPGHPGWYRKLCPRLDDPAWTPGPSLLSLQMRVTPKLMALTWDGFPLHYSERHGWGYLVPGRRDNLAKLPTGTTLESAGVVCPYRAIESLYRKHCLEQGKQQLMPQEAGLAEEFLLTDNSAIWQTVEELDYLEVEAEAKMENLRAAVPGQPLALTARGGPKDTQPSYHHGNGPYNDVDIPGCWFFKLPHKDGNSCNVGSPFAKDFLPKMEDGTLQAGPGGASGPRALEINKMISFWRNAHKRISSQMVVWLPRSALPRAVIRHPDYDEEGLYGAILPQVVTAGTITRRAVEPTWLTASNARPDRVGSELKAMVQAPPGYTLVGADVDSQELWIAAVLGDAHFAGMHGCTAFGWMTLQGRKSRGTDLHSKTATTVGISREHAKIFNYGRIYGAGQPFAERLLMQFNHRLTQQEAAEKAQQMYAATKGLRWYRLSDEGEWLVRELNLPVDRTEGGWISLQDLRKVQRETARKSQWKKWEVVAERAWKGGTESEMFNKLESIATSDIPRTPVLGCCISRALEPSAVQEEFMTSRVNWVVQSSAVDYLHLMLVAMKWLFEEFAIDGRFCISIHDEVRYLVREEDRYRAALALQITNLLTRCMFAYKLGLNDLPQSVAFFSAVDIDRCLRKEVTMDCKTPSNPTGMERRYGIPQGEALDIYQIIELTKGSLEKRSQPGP
In words: Inhibition of human DNA polymerase gamma.

The test system of another assay is HCT-116. Description: Antiproliferative activity against BRCA2 knock out human HCT-116 cells assessed as inhibition of cell growth incubated for 12 to 14 days with media replacement for every 3 or 4 days. In kind it is functional, cell-based.

In general, IC50 refers to the point on the concentration scale where inhibition reaches its midpoint. Regarding `Nc1ccc(C#CCN(C(=O)Cc2ncc(C(F)(F)F)cc2C(F)(F)F)c2ccc(F)cc2)nn1`, the 50% inhibitory concentration (IC50) in assay [1] was above 100000 nM; with HCT-116, 320 nM.
